Measurements published in patent publication US20240018115A1, “ALLOSTERIC CHROMENONE INHIBITORS OF PHOSPHOINOSITIDE 3-KINASE (PI3K) FOR THE TREATMENT OF DISEASE” (Petra Pharma Corporation, priority 2022, published 2024).

Molecular target: T1, PI3K-Alpha kinase H1047R mutant (Homo sapiens, UniProt P42336, H1047R)
T1 construct: host or cells: MDA-MB-453
Experiment: PI3K-Alpha Kinase (PIK3CA) Activity, H1047R Mutant In Vitro Cell Based Assay (MDA-MB-453 cells, AlphaLisa SureFire Ultra)
Conditions: 0% FBS, 3 hours treatment, relative IC50
Procedure: PI3K-Alpha Kinase (PIK3CA) Activity, H1047R Mutant In Vitro Cell Based Assay and Determining IC50 Values for Inhibitors
The MDA-MB-453 (ATCC-HTB-131) cell line was obtained from the American Type Culture Collection (Manassas, VA). Cells were maintained in Dulbecco's Modified Eagle Media (DMEM, Gibco 11965-092) supplemented with 10% Fetal Bovine Serum, heat inactivated (FBS HI, Gibco 10082-147), 1× non-essential amino acids (NEAA, Gibco 11140-050), and 1 mM sodium pyruvate (Gibco 11360-070). Cultures were maintained in a humidified incubator at 37° C. under 5% CO2/95% air.
For compound testing in 0% FBS, MDA-MB-453 cells were seeded at a density of 1.5×10^4 cells per well in white 384-well plates in 20 μl of Minimum Essential Media (MEM) assay media with 1×NEAA, 1 mM sodium pyruvate, and 1 μg/mL human insulin (Sigma I9278). Compounds dissolved in 10 mM stock solutions in DMSO were serially diluted 1:3 in DMSO to generate a 10-point dilution series and plated using an acoustic liquid handler system (Echo 550 Series Liquid Handler, Labcyte). A 5× intermediate compound dilution plate in MEM with 1×NEAA and 1 mM sodium pyruvate (150 μM starting compound concentration in 1.5% DMSO) was then prepared. Five μl of the intermediate serially diluted compounds were added to the cell plate to final concentrations ranging from […] in 0.3% DMSO. 0.3% DMSO alone was used to establish the maximum (MAX) signal and GDC-0032 at a final concentration of 1 μM was used as a reference compound for the minimum (MIN) signal. After 3 hours treatment, the medium was removed, and the cells lysed in 10 μL of 1× SureFire Lysis buffer with shaking for 10 minutes at room temperature. The Acceptor Mix (Reaction Buffer 1+Reaction Buffer 2+Activation Buffer+SureFire Ultra Acceptor Beads) was prepared by diluting Activation buffer 25-fold in combined Reaction Buffer 1 and Reaction Buffer 2. The Acceptor beads were diluted 50-fold in the combined Reaction Buffers. Five μL of Acceptor Mix was added to each well, the plate was sealed and covered with foil and incubated for 1 hour at room temperature. The Donor Mix (dilution buffer+SureFire Ultra Donor Beads) was prepared by diluting Donor Beads 50-fold in dilution buffer. Five μL of the Donor Mix was added to each well and the plate sealed and covered with foil and incubated for 1 hour at room temperature in the dark. The plates were read on a Neo2 plate reader instrument from Biotek using standard AlphaLisa settings. Compounds were tested in duplicate and the average % inhibition at each compound concentration was used to generate a single dose response curve. The data were processed using the Genedata-Screener tool. Relative IC50 values were determined using luminescence units by calculating percent inhibition with respect to the in-plate “MIN” (GDC-0032 reference control) and “MAX” (DMSO) controls. The data was analyzed using a 4-parameter nonlinear logistic equation (four-parameter logistic concentration-response curve):
Y=bottom+[(top−bottom)/1+(X/IC50)slope]
where Y=% inhibition, X=concentration of inhibitor, bottom=minimum value of y attained by curve-fit, top=maximum value of y attained by curve-fit and slope=steepness of curve at the IC50.
% Inhibition=[(signal at X−median Min)/(median Max−median Min)]×100
IC50: concentration of compound that reduces a given response (ligand binding, enzyme response) by 50%. Relative IC50: concentration giving half the compound's maximum response.

T1 sequence (P42336 whole entry H1047R): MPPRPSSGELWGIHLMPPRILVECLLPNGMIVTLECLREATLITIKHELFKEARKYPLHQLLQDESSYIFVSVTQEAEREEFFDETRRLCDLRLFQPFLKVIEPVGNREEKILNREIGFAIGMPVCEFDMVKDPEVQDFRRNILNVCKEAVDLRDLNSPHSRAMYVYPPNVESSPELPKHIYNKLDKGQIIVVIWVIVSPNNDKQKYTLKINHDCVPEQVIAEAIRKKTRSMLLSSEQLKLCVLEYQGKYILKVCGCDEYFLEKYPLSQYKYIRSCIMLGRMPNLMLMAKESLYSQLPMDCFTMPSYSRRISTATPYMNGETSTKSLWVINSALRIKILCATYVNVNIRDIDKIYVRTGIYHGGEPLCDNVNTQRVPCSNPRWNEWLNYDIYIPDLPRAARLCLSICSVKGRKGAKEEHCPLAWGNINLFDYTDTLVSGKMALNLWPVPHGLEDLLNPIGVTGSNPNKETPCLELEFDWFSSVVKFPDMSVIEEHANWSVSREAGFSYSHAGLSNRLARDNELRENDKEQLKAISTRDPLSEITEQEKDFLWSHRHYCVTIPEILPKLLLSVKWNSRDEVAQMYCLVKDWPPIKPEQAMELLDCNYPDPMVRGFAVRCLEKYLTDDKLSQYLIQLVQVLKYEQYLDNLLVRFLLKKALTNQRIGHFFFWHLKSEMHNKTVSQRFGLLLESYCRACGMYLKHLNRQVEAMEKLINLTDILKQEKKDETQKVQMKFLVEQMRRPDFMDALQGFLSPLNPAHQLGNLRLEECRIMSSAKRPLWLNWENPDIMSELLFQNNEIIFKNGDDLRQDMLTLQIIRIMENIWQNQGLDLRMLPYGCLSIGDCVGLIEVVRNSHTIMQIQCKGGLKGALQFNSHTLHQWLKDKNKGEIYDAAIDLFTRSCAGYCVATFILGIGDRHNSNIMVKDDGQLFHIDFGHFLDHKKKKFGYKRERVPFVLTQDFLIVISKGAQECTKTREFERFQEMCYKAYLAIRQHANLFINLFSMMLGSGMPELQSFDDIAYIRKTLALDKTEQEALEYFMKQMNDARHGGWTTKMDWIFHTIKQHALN
T1 sequence (P27986 whole entry partner): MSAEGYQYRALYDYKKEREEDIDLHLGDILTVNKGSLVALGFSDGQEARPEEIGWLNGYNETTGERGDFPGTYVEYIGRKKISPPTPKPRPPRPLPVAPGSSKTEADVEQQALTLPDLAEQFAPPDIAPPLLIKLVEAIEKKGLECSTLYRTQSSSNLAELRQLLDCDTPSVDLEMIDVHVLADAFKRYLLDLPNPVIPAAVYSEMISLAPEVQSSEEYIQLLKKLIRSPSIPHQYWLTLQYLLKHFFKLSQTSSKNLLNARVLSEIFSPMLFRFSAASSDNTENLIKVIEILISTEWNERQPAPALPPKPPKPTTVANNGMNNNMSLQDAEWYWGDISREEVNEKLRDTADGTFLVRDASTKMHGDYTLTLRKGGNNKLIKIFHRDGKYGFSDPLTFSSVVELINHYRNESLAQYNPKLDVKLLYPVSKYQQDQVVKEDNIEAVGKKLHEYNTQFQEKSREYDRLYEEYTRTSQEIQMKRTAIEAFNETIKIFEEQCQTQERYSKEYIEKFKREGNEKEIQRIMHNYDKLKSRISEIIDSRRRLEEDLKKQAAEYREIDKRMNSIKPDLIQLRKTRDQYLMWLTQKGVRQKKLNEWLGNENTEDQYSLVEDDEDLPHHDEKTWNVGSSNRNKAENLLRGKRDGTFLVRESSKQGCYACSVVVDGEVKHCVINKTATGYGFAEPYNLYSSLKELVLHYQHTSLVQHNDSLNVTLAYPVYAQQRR

SMILES	IC50 [nM]
Cc1cc(C(C)Nc2cccc3c2C(=O)C(=O)N3)c2oc(-c3ccccc3)c(C)c(=O)c2c1 (single isomer, unassigned) [Example 27A]	< 1000
Cc1cc([C@@H](C)Nc2ccc(Cl)cc2)c2oc(-c3ccccc3)c(C)c(=O)c2c1 [Example 12B, 8-[(1R)-1-(4-Chloroanilino)ethyl]-3,6-dimethyl-2-phenyl-chromen-4-one]	< 1000
Cc1cc([C@@H](C)Nc2cccnc2-c2n[nH]c(=O)[nH]2)c2oc(-c3ccccc3)c(C)c(=O)c2c1 [Example 63A, 3-[3-[[(1R)-1-(3,6-Dimethyl-4-oxo-2-phenyl-chromen-8-yl)ethyl]amino]-2-pyridyl]-1,4-dihydro-1,2,4-triazol-5-one]	< 500
Cc1cc([C@@H](C)Nc2ccccc2-c2ncco2)c2oc(-c3ccccc3)c(C)c(=O)c2c1 [Example 65A, 3,6-Dimethyl-8-[(1R)-1-(2-oxazol-2-ylanilino)ethyl]-2-phenyl-chromen-4-one]	< 1000
Cc1cc([C@@H](C)Nc2ccccc2-c2nncn2C)c2oc(-c3ccccc3)c(C)c(=O)c2c1 [Example 66A, 3,6-Dimethyl-8-[(1R)-1-[2-(4-methyl-1,2,4-triazol-3-yl)anilino]ethyl]-2-phenyl-chromen-4-one]	< 500
Cc1cc([C@@H](C)Nc2ccccc2-c2cncn2C)c2oc(-c3ccccc3)c(C)c(=O)c2c1 [Example 68A, 3,6-Dimethyl-8-[(1R)-1-[2-(3-methylimidazol-4-yl)anilino]ethyl]-2-phenyl-chromen-4-one]	< 500
Cc1cc([C@@H](C)Nc2ccccc2-c2cncs2)c2oc(-c3cccnc3)c(C)c(=O)c2c1 [Example 72A, 3,6-Dimethyl-2-(3-pyridyl)-8-[(1R)-1-(2-thiazol-5-ylanilino)-ethyl]chromen-4-one]	< 500
Cc1cc([C@@H](C)Nc2ccccc2-c2ccns2)c2oc(-c3cccnc3)c(C)c(=O)c2c1 [Example 74A, 8-[(1R)-1-(2-Isothiazol-5-ylanilino)ethyl]-3,6-dimethyl-2-(3-pyridyl)-chromen-4-one]	< 500
Cc1cc([C@@H](C)Nc2ccc(Cl)nc2C)c2oc(-c3ccc4cn[nH]c4c3)c(C)c(=O)c2c1 [Example 78B, 8-[(1R)-1-[(6-Chloro-2-methyl-3-pyridyl)amino]ethyl]-2-(1H-indazol-6-yl)-3,6-dimethyl-chromen-4-one]	< 500
Cc1cc([C@@H](C)Nc2ccc(Cl)nc2S(C)(=O)=O)c2oc(-c3ccccc3)c(C)c(=O)c2c1 [Example 80B, 8-[(1R)-1-[(6-Chloro-2-methylsulfonyl-3-pyridyl)amino]ethyl]-3,6-dimethyl-2-phenyl-chromen-4-one]	< 500
CNC(=O)c1ccccc1N[C@H](C)c1cc(C)cc2c(=O)c(C)c(-c3cccnc3)oc12 [Example 83A, 2-[[(1R)-1-[3,6-Dimethyl-4-oxo-2-(3-pyridyl)chromen-8-yl]ethyl]amino]-N-methyl-benzamide]	< 500
CNC(=O)c1ccccc1N[C@H](C)c1cc(C)cc2c(=O)c(C)c(-c3ccc4nn(C)cc4c3)oc12 [Example 84A]	< 500
CNC(=O)c1ccccc1N[C@H](C)c1cc(C)cc2c(=O)c(C)c(-c3cccc(F)c3)oc12 [Example 86A, 2-[[(1R)-1-[2-(3-Fluorophenyl)-3,6-dimethyl-4-oxo-chromen-8-yl]ethyl]amino]-N-methyl-benzamide]	< 500
CONS(=O)(=O)c1ccccc1N[C@H](C)c1cc(C)cc2c(=O)c(C)c(-c3ccccc3)oc12 [Example 129C, 2-[[(1R)-1-(3,6-Dimethyl-4-oxo-2-phenyl-chromen-8-yl)ethyl]amino]-N-methoxy-benzenesulfonamide]	< 500
Cc1cc([C@@H](C)Nc2ccc(Cl)nc2C(=O)NS(N)(=O)=O)c2oc(-c3ccccc3)c(C)c(=O)c2c1 [Example 130C, 6-Chloro-3-[[(1R)-1-(3,6-dimethyl-4-oxo-2-phenyl-chromen-8-yl)ethyl]amino]-N-sulfamoyl-pyridine-2-carboxamide]	< 500
Cc1cc([C@@H](C)Nc2ccc(Cl)nc2S(N)(=O)=O)c2oc(-c3ccccc3)c(-c3cnoc3)c(=O)c2c1 [Example 132C]	< 500
Cc1cc([C@@H](C)Nc2ccc(Cl)nc2S(N)(=O)=O)c2oc(-c3ccc(=O)n(C(C)C)c3)c(C)c(=O)c2c1 [Example 133C]	< 500
Cc1cc([C@@H](C)Nc2cccnc2N(C)C)c2oc(-c3cccnc3)c(C)c(=O)c2c1 [Example 168C, 8-[(1R)-1-[[2-(Dimethylamino)-3-pyridyl]amino]ethyl]-3,6-dimethyl-2-(3-pyridyl)chromen-4-one]	< 500
Cc1cc([C@@H](C)Nc2cccnc2C(=O)NCC(C)(C)O)c2oc(-c3ccccc3)c(C)c(=O)c2c1 [Example 177A, 3-[[(1R)-1-(3,6-Dimethyl-4-oxo-2-phenyl-chromen-8-yl)ethyl]amino]-N-(2-hydroxy-2-methyl-propyl)pyridine-2-carboxamide]	< 500

The remaining lines, values ahead:

IC50 [nM]	SMILES
< 500	Cc1cc(C(C)Nc2ccccc2-n2cnnn2)c2oc(-c3ccccc3)c(C)c(=O)c2c1 (single isomer, unassigned) [Example 24A, 3,6-Dimethyl-2-phenyl-8-[1-[2-(tetrazol-1-yl)anilino]ethyl]chromen-4-one]
< 500	Cc1cc(C(C)Nc2ccc(Cl)nc2-c2ccccc2F)c2oc(-c3cccnc3)c(C)c(=O)c2c1 (single isomer, unassigned) [Example 219C, 8-[1-[[6-Chloro-2-(2-fluorophenyl)-3-pyridyl]amino]ethyl]-3,6-dimethyl-2-(3-pyridyl)chromen-4-one]
< 500	Cc1cc(C(C)Nc2ccc(Cl)nc2-c2ccc(=O)[nH]c2)c2oc(-c3cccnc3)c(C)c(=O)c2c1 (single isomer, unassigned) [Example 222C, 5-[6-Chloro-3-[1-[3,6-dimethyl-4-oxo-2-(3-pyridyl)chromen-8-yl]ethylamino]-2-pyridyl]-1H-pyridin-2-one]
< 500	Cc1cc([C@@H](C)Nc2cccnc2C)c2oc(-c3cccnc3)c(C)c(=O)c2c1 [Example 9B, 3,6-Dimethyl-8-[(1R)-1-[(2-methyl-3-pyridyl)amino]ethyl]-2-(3-pyridyl)chromen-4-one]
< 500	Cc1cc([C@@H](C)Nc2ccc(Cl)nc2C)c2oc(-c3cccnc3)c(C)c(=O)c2c1 [Example 10B, 8-[(1R)-1-[(6-Chloro-2-methyl-3-pyridyl)amino]ethyl]-3,6-dimethyl-2-(3-pyridyl)chromen-4-one]
< 500	Cc1cc([C@@H](C)Nc2ccc(Cl)nc2)c2oc(-c3ccccc3)c(C)c(=O)c2c1 [Example 14B, 8-[(1R)-1-[(6-Chloro-3-pyridyl)amino]ethyl]-3,6-dimethyl-2-phenyl-chromen-4-one]
< 500	Cc1cc([C@@H](C)Nc2ccc(Cl)nc2)c2oc(-c3ccc(CN(C)C)cc3)c(C)c(=O)c2c1 [Example 22B, 8-[(1R)-1-[(6-Chloro-3-pyridyl)amino]ethyl]-2-[4-[(dimethylamino)methy1]phenyl]-3,6-dimethyl-chromen-4-one]
< 500	Cc1cc(C(C)Nc2ccccc2S(N)(=O)=O)c2oc(-c3ccccc3)c(C)c(=O)c2c1 (centres unmarked) [Example 32A, 2-[1-(3,6-Dimethyl-4-oxo-2-phenyl-chromen-8-yl)ethylamino]benzenesulfonamide]
< 500	Cc1cc([C@@H](C)Nc2cccnc2-c2ncon2)c2oc(-c3ccccc3)c(C)c(=O)c2c1 [Example 53C, 3,6-Dimethyl-8-[(1R)-1-[[2-(1,2,4-oxadiazol-3-yl)-3-pyridyl]amino]ethyl]-2-phenyl-chromen-4-one]
< 500	Cc1cc([C@@H](C)Nc2ccccc2C(=O)C=S(C)(C)=O)c2oc(-c3ccccc3)c(C)c(=O)c2c1 [Example 54C, 8-[(1R)-1-[2-[2-[Dimethyl(oxo)-lambda6-sulfanylidene]acetyl]anilino]ethyl]-3,6-dimethyl-2-phenyl-chromen-4-one]
